System: Metabolism protein genes
Assay: DNA chip mRNA expression in yeast, metabolism protein genes (Table 7)
Format: cell-based, Saccharomyces cerevisiae S288C
Protocol: Yeast (Saccharomyces cerevisiae S288C (α SUC2mal mel gap2 CUP1)) were incubated at 25° C. on YPD medium (yeast extract 1%, polypepton 2%, glucose 2%). One of toxic chemical substances was added to the cells at logarithmic growth phase, and the cells were further incubated for two hours. Cells were cultured without any chemical substance in the same condition, and were used as control. Concentrations of the chemical substances were defined to inhibit the growth of the yeast but not lead to death.
After completion of the incubation, the culture was centrifuged to collect the cells. To the cells, sodium acetate buffer (50 mM sodium acetate, 10 mM EDTA, 1% SDS) was added, and the mixture was shaken at 65° C. for five minutes, followed by returning to room temperature, and obtaining the supernatant, of which the procedures were repeated two times. To the supernatant, ½ amount of a solution of phenol/chloroform was added, and the mixture was centrifuged to give a supernatant, which was added with an equal amount of chloroform, and the mixture was centrifuged to give a supernatant. To the supernatant, an equal amount of isopropanol containing 0.3 M sodium acetate was added, and the mixture was allowed to stand at room temperature for 30 minutes, after which the mixture was centrifuged to give a sediment of the whole RNAs. Seventy % ethanol was added to the sediment, and the mixture was again centrifuged to give a sediment, which was then dried and dissolved in water. mRNA was isolated from the whole RNAs as followings. In view of the fact that a poly A chain is attached to the 3′ terminus of mRNA, a polynucleotide having a poly T structure which was immobilized on the surface of latex beads was used to trap the mRNA, and then the mRNA was washed and eluted with spine column (Oligotex-dT30<Super>mRNA Purification Kit, Takara). Reverse transcription of the mRNA was conducted with a reverse transcriptase (Super Script II Reverse Transcriptase; catalogue No. 18064-014, GibcoBRL) using fluorescence-labeled nucleotides to give cDNAs that were introduced with Cy3-dUTP or Cy5-dUTP during the reverse transcription.
The labeled cDNAs were dissolved in TE buffer (10mM Tris-HCl/1 mM EDTA, pH8.0), and the solution was dropped on the DNA chip containing the whole genes of yeast (DNA Chip Research Inc. Japan) so that the cDNAs were hybridized on the DNA chip at 65° C. for over 12 hours. The fluoresces intensity of the DNA chip was read with a scanner, and the ratio relative to the fluorescence intensity resulting from the absence of chemical substance was estimated as the following, which is shown in Tables 1 to 9: […]

N#Cc1c(Cl)c(Cl)c(Cl)c(C#N)c1Cl [(9), 2,4,5,6-tetrachloro-1,3-benzenedicarbonitrile]
The level of expressed mRNA in the presence of chemical substance/The level of expressed mRNA in the absence of chemical substance (yeast gene YER178W): 1.7 | level of expressed mRNA in the presence/in the absence of chemical substance (yeast gene YFL011W): 0.3 | The level of expressed mRNA in the presence of chemical substance/The level of expressed mRNA in the absence of chemical substance (yeast gene YFL014W): 13.1 | The level of expressed mRNA in the presence of chemical substance/The level of expressed mRNA in the absence of chemical substance (yeast gene YFL030W): 24.5 | The level of expressed mRNA in the presence of chemical substance/The level of expressed mRNA in the absence of chemical substance (yeast gene YFL031W): 1.0 | The level of expressed mRNA in the presence of chemical substance/The level of expressed mRNA in the absence of chemical substance (yeast gene YFL056C): 162.3 | The level of expressed mRNA in the presence of chemical substance/The level of expressed mRNA in the absence of chemical substance (yeast gene YFL057C): 51.8 | The level of expressed mRNA in the presence of chemical substance/The level of expressed mRNA in the absence of chemical substance (yeast gene YFR047C): 3.0 | level of expressed mRNA in the presence/in the absence of chemical substance (yeast gene YGL012W): 0.3 | The level of expressed mRNA in the presence of chemical substance/The level of expressed mRNA in the absence of chemical substance (yeast gene YGL022W): 0.9 | The level of expressed mRNA in the presence of chemical substance/The level of expressed mRNA in the absence of chemical substance (yeast gene YGL026C): 3.7 | level of expressed mRNA in the presence/in the absence of chemical substance (yeast gene YGL115W): 1.2 | The level of expressed mRNA in the presence of chemical substance/The level of expressed mRNA in the absence of chemical substance (yeast gene YGL126W): 1.6 | The level of expressed mRNA in the presence of chemical substance/The level of expressed mRNA in the absence of chemical substance (yeast gene YGL202W): 1.3 | The level of expressed mRNA in the presence of chemical substance/The level of expressed mRNA in the absence of chemical substance (yeast gene YGL209W): 0.6 | The level of expressed mRNA in the presence of chemical substance/The level of expressed mRNA in the absence of chemical substance (yeast gene YGL248W): 0.2 | The level of expressed mRNA in the presence of chemical substance/The level of expressed mRNA in the absence of chemical substance (yeast gene YGL252C): 2.7 | The level of expressed mRNA in the presence of chemical substance/The level of expressed mRNA in the absence of chemical substance (yeast gene YGL254W): 3.1 | The level of expressed mRNA in the presence of chemical substance/The level of expressed mRNA in the absence of chemical substance (yeast gene YGR037C): 1.7 | The level of expressed mRNA in the presence of chemical substance/The level of expressed mRNA in the absence of chemical substance (yeast gene YGR055W): 5.0 | level of expressed mRNA in the presence/in the absence of chemical substance (yeast gene YGR096W): 0.8 | level of expressed mRNA in the presence/in the absence of chemical substance (yeast gene YGR191W): 0.1 | The level of expressed mRNA in the presence of chemical substance/The level of expressed mRNA in the absence of chemical substance (yeast gene YGR194C): 2.4 | level of expressed mRNA in the presence/in the absence of chemical substance (yeast gene YGR204W): 0.9 | The level of expressed mRNA in the presence of chemical substance/The level of expressed mRNA in the absence of chemical substance (yeast gene YGR256W): 3.4 | The level of expressed mRNA in the presence of chemical substance/The level of expressed mRNA in the absence of chemical substance (yeast gene YGR282C): 0.8 | level of expressed mRNA in the presence/in the absence of chemical substance (yeast gene YGR288W): 1.6 | level of expressed mRNA in the presence/in the absence of chemical substance (yeast gene YHR025W): 0.2 | The level of expressed mRNA in the presence of chemical substance/The level of expressed mRNA in the absence of chemical substance (yeast gene YHR111W): 4.5 | level of expressed mRNA in the presence/in the absence of chemical substance (yeast gene YHR123W): 0.8 | The level of expressed mRNA in the presence of chemical substance/The level of expressed mRNA in the absence of chemical substance (yeast gene YHR137W): 0.2 | The level of expressed mRNA in the presence of chemical substance/The level of expressed mRNA in the absence of chemical substance (yeast gene YHR174W): 1.0 | The level of expressed mRNA in the presence of chemical substance/The level of expressed mRNA in the absence of chemical substance (yeast gene YHR176W): 6.3 | level of expressed mRNA in the presence/in the absence of chemical substance (yeast gene YIL006W): 0.9 | The level of expressed mRNA in the presence of chemical substance/The level of expressed mRNA in the absence of chemical substance (yeast gene YIL045W): 2.1 | The level of expressed mRNA in the presence of chemical substance/The level of expressed mRNA in the absence of chemical substance (yeast gene YIL107C): 3.5 | The level of expressed mRNA in the presence of chemical substance/The level of expressed mRNA in the absence of chemical substance (yeast gene YIL154C): 2.4 | The level of expressed mRNA in the presence of chemical substance/The level of expressed mRNA in the absence of chemical substance (yeast gene YIL155C): 2.5 | The level of expressed mRNA in the presence of chemical substance/The level of expressed mRNA in the absence of chemical substance (yeast gene YIL167W): 6.9 | The level of expressed mRNA in the presence of chemical substance/The level of expressed mRNA in the absence of chemical substance (yeast gene YIL168W): 7.8 | The level of expressed mRNA in the presence of chemical substance/The level of expressed mRNA in the absence of chemical substance (yeast gene YIR031C): 2.6 | The level of expressed mRNA in the presence of chemical substance/The level of expressed mRNA in the absence of chemical substance (yeast gene YIR032C): 2.6 | The level of expressed mRNA in the presence of chemical substance/The level of expressed mRNA in the absence of chemical substance (yeast gene YIR034C): 3.2 | The level of expressed mRNA in the presence of chemical substance/The level of expressed mRNA in the absence of chemical substance (yeast gene YIR036C): 3.3 | The level of expressed mRNA in the presence of chemical substance/The level of expressed mRNA in the absence of chemical substance (yeast gene YJL031C): 4.7 | The level of expressed mRNA in the presence of chemical substance/The level of expressed mRNA in the absence of chemical substance (yeast gene YJL045W): 9.7 | The level of expressed mRNA in the presence of chemical substance/The level of expressed mRNA in the absence of chemical substance (yeast gene YJL060W): 5.3 | The level of expressed mRNA in the presence of chemical substance/The level of expressed mRNA in the absence of chemical substance (yeast gene YJL068C): 6.5 | The level of expressed mRNA in the presence of chemical substance/The level of expressed mRNA in the absence of chemical substance (yeast gene YJL088W): 3.2 | The level of expressed mRNA in the presence of chemical substance/The level of expressed mRNA in the absence of chemical substance (yeast gene YJL099W): 3.1

Source: patent US8192962B2, “Processes for detecting toxic substances” (Daikin Industries, Ltd., priority 2001, dated 2012)
